Measurements published in patent publication US8859545B2, “Tetrahydronaphthyridine and tetrahydropyrido[4,3-D]pyrimidine compounds and compositions thereof useful for the treatment of inflammatory and respiratory diseases” (Evotec AG, priority 2005, dated 2014).

System: P2X2/3 chimera (P2X2/3C)
Test: Calcium uptake assay (P2X antagonist assay, agonist-induced calcium influx)
Type: cell-based
Description: Human P2X3 (Accession no. NM_002559), P2X2 (Accession no. NM_170682) and Rat P2X3 (Accession no. NM_031075) and P2X2 (Accession no. NM_053656) are cloned into a mammalian expression vector (e.g., pcDNA5/TO or pcDNA3 Invitrogen). For coexpression of P2X2 and P2X3, the coding regions of both receptors were cloned into a bicistronic vector using methods similar to those described by Kawashima et al., Receptors Channels 5:53-60, 1998. The P2X2/3 chimera clone was created as described by Neelands et al, and then cloned into an expression vector as above. Receptors are expressed in cells (e.g., HEK293 or 1321N1) via transient transfection using standard lipid mediated transfection, or by creation of stable transfectants for each receptor. Cell lines are maintained in DMEM+5% Glutamax, the appropriate level of selective antibiotic, and 10% heat inactivated FBS.
The agonist EC50 is determined at the start of the assay and compound IC50 experiments are run using a set agonist concentration (EC50-90 depending on cell line) as stimulus. The agonists used are αβMeATP, ATP, or other ATP analogs. Compounds may be tested at concentrations ranging from 1 μM to 10 μM. Functional activity of compounds at the P2X receptor is determined by measuring their ability to inhibit agonist-induced calcium influx. Compounds may be tested for antagonist activity against the P2X2/3 chimera, the P2X3 homomer, or the P2X2/3 heteromer. To test for antagonist activity, cells expressing the appropriate receptor are seeded onto 96 or 384 well plates 18-24 hours prior to assay. On the day of the assay, cells are loaded with calcium-sensitive fluorescent dye (e.g., Fluo-4 no wash reagent-Invitrogen cat# F36206, or the BD™ PBX Calcium Assay Kit-BD cat#640175) in Hank's Buffered Salt Solution (HBSS) with up to 10 mM supplemental CaCl2. Plates are incubated at 37° C. and then equilibrated at room temperature. Antagonism of agonist-induced calcium influx is measured using a fluorescent imaging plate reader. The assay comprises two stages: a pre-treatment phase followed by a treatment phase. Compounds may be tested as follows: For the pre-treatment phase, 50 μL of 3× concentration of test compound in HBSS is added to cells containing 100 μL of dye loading media to achieve a final concentration of 1×. For the treatment phase, at a set interval after pre-treatment, 50 μL of 1× test compound plus 4× agonist solution is added to cells. Fluorescence is measured at 0.1-3 second intervals with an excitation wavelength of 494 nm and an emission wavelength of 515 nm. Responses are measured as peak fluorescence after compound-agonist addition minus baseline fluorescence prior to treatment. Percent inhibition is calculated as follows: […]
A calcium uptake assay was performed as described in paragraphs […] above.

[1] = at 10 μM (symbol after the slash)
[2] = at 3 μM (symbol before the slash)

Structure (SMILES)	Ca Influx P2X2/3C % Inhibition at 3 μM/10 μM [1]	Ca Influx P2X2/3C % Inhibition at 3 μM/10 μM [2]
FC(F)(F)c1ccc(Nc2ncnc3c2CN(c2ncccc2Cl)CC3)cn1 [Compound 4, 6-(3-Chloropyridin-2-yl)-N-(6-(trifluoromethyl)pyridin-3-yl)-5,6,7,8-tetrahydropyrido[4,3-d]pyrimidin-4-amine]	/* (compound exhibited 0-25% inhibition at 10 μM)	–
Cc1ccc(N2CCc3ncnc(NCc4ccc(F)c(F)c4)c3C2)nc1 [Compound 73]	–	++++/ ^ (compound exhibited 75% or greater inhibition at 3 μM)
CCc1ccc(CN(C)c2ncnc3c2CN(c2ccc(C)cn2)CC3)cc1 [Compound 65]	–	+/ (compound exhibited 0-25% inhibition at 3 μM)
COc1ccc(CNc2ncnc3c2CN(c2ccc(C)cn2)CC3)cc1 [Compound 53]	–	++++/ ^ (compound exhibited 75% or greater inhibition at 3 μM)
Cc1ccc(N2CCc3ncnc(NCc4cc(C(F)(F)F)ccc4Cl)c3C2)nc1 [Compound 89]	* (compound exhibited 0-25% inhibition at 10 μM)	+ (compound exhibited 0-25% inhibition at 3 μM)
COc1cccc(CN(C)c2ncnc3c2CN(c2ccc(C)cn2)CC3)c1 [Compound 64]	–	+/ (compound exhibited 0-25% inhibition at 3 μM)
Cc1ccc(N2CCc3ncnc(NC(C)c4ccc(F)cc4)c3C2)nc1 (stereo not shown) [Compound 86]	–	++++/ ^ (compound exhibited 75% or greater inhibition at 3 μM)
Clc1cccnc1N1CCc2ncnc(Nc3ccccc3)c2C1 [Compound 2, 6-(3-Chloropyridin-2-yl)-5,6,7,8-tetrahydro-N-phenylpyrido[4,3-d]pyrimidin-4-amine]	–	+/ (compound exhibited 0-25% inhibition at 3 μM)
Cc1ccc(N2CCc3ncnc(NCc4ccc(C(C)C)cc4)c3C2)nc1 [Compound 58]	–	+/ (compound exhibited 0-25% inhibition at 3 μM)
Cc1ccc(N2CCc3ncnc(NCc4ccc(Cl)cc4F)c3C2)nc1 [Compound 83]	–	+++/ ^ (compound exhibited 50-75% inhibition at 3 μM)
Cc1ccc(N2CCc3ncnc(Nc4ccc(C(F)(F)F)cc4)c3C2)cc1 [Compound 12, N-(4-(Trifluoromethyl)phenyl)-5,6,7,8-tetrahydro-6-p-tolylpyrido[4,3-d]pyrimidin-4-amine]	/* (compound exhibited 0-25% inhibition at 10 μM)	–
Cc1ccc(N2CCc3ncnc(NCc4cc(F)cc(C(F)(F)F)c4)c3C2)nc1 [Compound 75]	–	+/ (compound exhibited 0-25% inhibition at 3 μM)
Cc1ccc(N2CCc3ncnc(NCc4ccccc4OC(F)F)c3C2)nc1 [Compound 52]	–	++++/ ^ (compound exhibited 75% or greater inhibition at 3 μM)
Cc1ccc(N2CCc3ncnc(NCc4cccc(Cl)c4)c3C2)nc1 [Compound 55]	–	++++/ ^ (compound exhibited 75% or greater inhibition at 3 μM)
COc1ccc(CCNc2ncnc3c2CN(c2ccc(C)cn2)CC3)cc1 [Compound 35]	–	++++/ ^ (compound exhibited 75% or greater inhibition at 3 μM)
Cc1ccc(N2CCc3ncnc(NCc4ccccc4Cl)c3C2)nc1 [Compound 30]	–	++++/ ^ (compound exhibited 75% or greater inhibition at 3 μM)
COc1cc(CNc2ncnc3c2CN(c2ccc(C)cn2)CC3)cc(OC)c1 [Compound 87]	–	+/ (compound exhibited 0-25% inhibition at 3 μM)
Cc1ccc(N2CCc3ncnc(NCc4cc(F)ccc4F)c3C2)nc1 [Compound 71]	–	+++/ ^ (compound exhibited 50-75% inhibition at 3 μM)
Cc1ccc(N2CCc3ncnc(N(C)Cc4cccc(Cl)c4)c3C2)nc1 [Compound 66]	–	+/ (compound exhibited 0-25% inhibition at 3 μM)

Structure (SMILES)	Ca Influx P2X2/3C % Inhibition at 3 μM/10 μM [1]	Ca Influx P2X2/3C % Inhibition at 3 μM/10 μM [2]
COc1cccc(CNc2ncnc3c2CN(c2ccc(C)cn2)CC3)c1 [Compound 28]	**** (compound exhibited 25-50% inhibition at 10 μM)	++++ (compound exhibited 75% or greater inhibition at 3 μM)
Cc1ccc(N2CCc3ncnc(NCc4ccc(OC(F)(F)F)cc4)c3C2)nc1 [Compound 40]	–	+++/ ^ (compound exhibited 50-75% inhibition at 3 μM)
Cc1ccccc1N1CCc2ncnc(Nc3ccc(C(F)(F)F)cc3)c2C1 [Compound 10, N-(4-(Trifluoromethyl)phenyl)-5,6,7,8-tetrahydro-6-o-tolylpyrido[4,3-d]pyrimidin-4-amine]	/* (compound exhibited 0-25% inhibition at 10 μM)	–
Cc1ccc(N2CCc3ncnc(NCCc4ccc(Cl)cc4)c3C2)nc1 [Compound 48]	–	++++/ ^ (compound exhibited 75% or greater inhibition at 3 μM)
Cc1ccc(N2CCc3ncnc(NCc4ccc(C(C)(C)C)cc4)c3C2)nc1 [Compound 44]	–	+/ (compound exhibited 0-25% inhibition at 3 μM)
Cc1ccc(N2CCc3ncnc(NCc4ccccc4OC(F)(F)F)c3C2)nc1 [Compound 42]	–	++++/ ^ (compound exhibited 75% or greater inhibition at 3 μM)
COc1cc(CCNc2ncnc3c2CN(c2ccc(C)cn2)CC3)cc(OC)c1 [Compound 51]	–	+++/ ^ (compound exhibited 50-75% inhibition at 3 μM)
COc1ccc(CCNc2ncnc3c2CN(c2ccc(C)cn2)CC3)cc1OC [Compound 47]	–	+++/ ^ (compound exhibited 50-75% inhibition at 3 μM)
Cc1ccc(CN(C)c2ncnc3c2CN(c2ccc(C)cn2)CC3)cc1 [Compound 70]	–	++/ (compound exhibited 25-50% inhibition at 3 μM)
Cc1ccc(N2CCc3ncnc(NCc4ccccc4C)c3C2)nc1 [Compound 24]	/**** (compound exhibited 25-50% inhibition at 10 μM)	–
Cc1ccc(N2CCc3ncnc(NCc4cc(C(F)(F)F)ccc4F)c3C2)nc1 [Compound 74]	–	+/ (compound exhibited 0-25% inhibition at 3 μM)
CC1(C)C(=O)Nc2cc(Nc3ncnc4c3CN(c3ncccc3Cl)CC4)ccc21 [Compound 13, 6-[6-(3-Chloro-pyridin-2-yl)-5,6,7,8-tetrahydro-pyrido[4,3-d]pyrimidin-4-ylamino]-3,3-dimethyl-1,3-dihydro-indol-2-one]	/* (compound exhibited 0-25% inhibition at 10 μM)	–
Cc1ccc(N2CCc3ncnc(NCc4cccc(F)c4F)c3C2)nc1 [Compound 77]	–	++++/ ^ (compound exhibited 75% or greater inhibition at 3 μM)
Cc1ccc(N2CCc3ncnc(NCc4ccc(C(F)(F)F)cc4)c3C2)nc1 [Compound 50]	–	++++/ ^ (compound exhibited 75% or greater inhibition at 3 μM)
Cc1ccc(N2CCc3ncnc(NCC4(O)CCCC(C)(C)C4)c3C2)nc1 (stereo not shown) [Compound 18, 3,3-Dimethyl-1-{[6-(5-methyl-pyridin-2-yl)-5,6,7,8-tetrahydro-pyrido[4,3-d]pyrimidin-4-ylamino]-methyl}-cyclohexanol]	/* (compound exhibited 0-25% inhibition at 10 μM)	–
Cc1ccc(CCNc2ncnc3c2CN(c2ccc(C)cn2)CC3)cc1 [Compound 49]	–	++++/ ^ (compound exhibited 75% or greater inhibition at 3 μM)
COc1ccccc1CN(C)c1ncnc2c1CN(c1ccc(C)cn1)CC2 [Compound 63]	–	+/ (compound exhibited 0-25% inhibition at 3 μM)
Cc1ccc(N2CCc3ncnc(NCc4ccc(C(F)(F)F)cc4F)c3C2)nc1 [Compound 121]	–	++++/ ^ (compound exhibited 75% or greater inhibition at 3 μM)
Cc1ccc(N2CCc3ncnc(NCc4cccc(C(F)(F)F)c4)c3C2)nc1 [Compound 38]	–	+++/ ^ (compound exhibited 50-75% inhibition at 3 μM)
